In patent publication US6436952B1, “Benzonaphthyridine-N-oxides comprising a PDE3 and PDE4 inhibiting activity” (BYK Gulden Lomberg Chemische Fabrik GmbH, priority 1998, dated 2002):

How the values were obtained:
[1] = target: T1, PDE3 (cGMP-inhibited) (Homo sapiens, UniProt Q14432); test: Inhibition of PDE isoenzymes: PDE3 in homogenates of human blood platelets; assay type: biochemical; conditions: cAMP as substrate, read-out: PDE3 [-log IC50, mol/l] (converted)
T1 construct: were investigated in homogenates of human blood platelets; from tissue; host or cells: homogenate of human blood platelets
Protocol: (§1) The PDE activity was determined according to Thompson et al. (1) with some modifications (2). The test samples contained 40 mM tris HCl (pH 7.4), 5 mM MgCl2, 0.5 μM cAMP or cGMP, [^3H]cAMP or [^3H]cGMP (about 50 000 cpm/sample), the PDE isoenzyme-specific additions described in greater detail below, the indicated concentrations of inhibitor and an aliquot of the enzyme solution in a total sample volume of 200 μl. […] After preincubation at 37° C. for 5 minutes, the reaction was started by addition of the substrate (cAMP or cGMP). The samples were incubated at 37° C. for a further 15 min. The reaction was terminated by addition of 50 μl of 0.2N HCl. After cooling on ice for 10 minutes and addition of 25 μg of 5′-nucleotidase (snake venom from Crotalus atrox), the mixture was again incubated at 37° C. for 10 min and the samples were then applied to QAE Sephadex A-25 columns. The columns were eluted with 2 ml of 30 mM ammonium formate (pH 6.0). The radioactivity of the eluate was measured and corrected by the corresponding blank values. The proportion of hydrolyzed nucleotide in no case exceeded 20% of the original substrate concentration. […]
(§2) The lC50 values were determined from the concentration-inhibition curves by nonlinear regression using the GraphPad InPlot™ program (GraphPad Software Inc., Philadelphia, USA).

[2] = target: PDE4 (cAMP-specific); test: Inhibition of PDE isoenzymes: PDE4 in cytosol of human polymorphonuclear leukocytes; assay type: biochemical; conditions: cytosol of human PMNL, cAMP as substrate, motapizone (1 μM) present
Protocol: as §1, §2

T1 sequence (Q14432 whole entry): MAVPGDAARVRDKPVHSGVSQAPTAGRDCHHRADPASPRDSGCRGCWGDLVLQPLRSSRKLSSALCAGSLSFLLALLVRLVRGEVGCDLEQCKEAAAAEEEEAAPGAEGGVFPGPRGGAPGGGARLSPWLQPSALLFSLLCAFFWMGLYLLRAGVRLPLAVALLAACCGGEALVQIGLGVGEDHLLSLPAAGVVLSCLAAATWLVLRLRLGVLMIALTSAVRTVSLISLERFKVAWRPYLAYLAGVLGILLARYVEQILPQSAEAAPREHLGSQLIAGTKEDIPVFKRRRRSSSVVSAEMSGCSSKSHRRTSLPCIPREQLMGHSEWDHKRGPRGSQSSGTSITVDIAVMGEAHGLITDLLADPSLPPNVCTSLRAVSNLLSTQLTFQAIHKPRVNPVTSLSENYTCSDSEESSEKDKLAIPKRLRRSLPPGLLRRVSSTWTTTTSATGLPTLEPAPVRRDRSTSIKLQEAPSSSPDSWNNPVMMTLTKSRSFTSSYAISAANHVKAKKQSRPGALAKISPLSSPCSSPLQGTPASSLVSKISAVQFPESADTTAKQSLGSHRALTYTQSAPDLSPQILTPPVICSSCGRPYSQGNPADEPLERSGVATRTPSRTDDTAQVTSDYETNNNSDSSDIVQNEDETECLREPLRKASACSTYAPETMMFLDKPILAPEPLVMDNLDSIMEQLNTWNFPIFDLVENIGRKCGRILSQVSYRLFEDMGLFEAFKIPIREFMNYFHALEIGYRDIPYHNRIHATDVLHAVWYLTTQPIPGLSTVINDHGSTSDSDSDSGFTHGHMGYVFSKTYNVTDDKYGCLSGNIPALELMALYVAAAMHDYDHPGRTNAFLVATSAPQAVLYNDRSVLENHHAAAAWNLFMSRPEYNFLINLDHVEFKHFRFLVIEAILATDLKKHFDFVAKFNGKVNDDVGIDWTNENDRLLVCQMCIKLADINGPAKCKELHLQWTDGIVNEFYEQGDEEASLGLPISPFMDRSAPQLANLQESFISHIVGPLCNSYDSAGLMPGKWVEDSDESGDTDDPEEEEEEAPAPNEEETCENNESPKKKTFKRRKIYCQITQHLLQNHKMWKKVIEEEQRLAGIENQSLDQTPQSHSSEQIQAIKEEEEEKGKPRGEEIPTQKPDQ

IC50 [1]: 776 nM
PDE4 [-log IC50, mol/l] [2]: 7.53 -log IC50, mol/l
melting point: 168 to 170 °C
SMILES: CCOc1cc2c(cc1OC)C(c1ccc(-c3nnn(CC)n3)cc1)=NC1CC[N+](C)([O-])CC21 (stereo not drawn) [Compound 1, cis-9-Ethoxy-8-methoxy-2-methyl-6-[4-(2H-2-ethyltetrazol-5-yl)phenyl]-1,2,3,4,4a,10b-hexahydrobenzo[c][1,6]naohthyridine N-2-Oxide]
